{
  "source": "patent US20050132448A1",
  "about": "“Assay for beta cell toxic macrolides” (priority 2001, published 2005)",
  "key": {"Balb/c mice [1]": {"system": "Balb/c mice", "assay": "Oral glucose tolerance test (OGTT)", "type": "in vivo", "protocol": "(§1) Male Balb/c mice were provided by the Monash University Central Animal House and Breeding Facility. The Monash University Department of Biochemistry Animal Ethics Committee approved all animal experimentation. Bafilomycin A1 (Sigma) was dissolved in 70% ethanol then diluted 1 in 10 with sterile phosphate buffered saline (PBS) to give a working stock of 4.8 μg/ml. Groups of between 3 and 9 mice as indicated were administered 12 μg per kilogram (body weight) bafilomycin A1 by intraperitoneal injection, which should achieve a final concentration in the blood of 275 nM bafilomycin A1 assuming a blood volume of 70 ml per kg for mice. […] Control mice received the ethanol/PBS carrier solution that lacked the inhibitor.\nGroups of 6 control and 6 treated mice were fasted for 6-7 hours then anaesthetised by intraperitoneal injection of 35 mg/kg body weight of pentobarbitone (Nembutal) in order to minimise stress-induced variations in blood glucose. D-glucose (2 mg/g body weight) was delivered into the stomach by gavage as a 200 mg/ml solution. Blood glucose concentrations were determined for the fasted mice and at 15, 30, 60 and 120 minutes after glucose challenge as follows. Whole blood (approximately 60 μl) was collected from the tail vein and glucose concentrations were immediately determined by the glucose oxidase method using a YSI glucose analyser."}, "Balb/c mice [2]": {"system": "Balb/c mice", "assay": "Plasma immunoreactive insulin (radioimmunoassay)", "type": "in vivo", "details": "7 days after treatment", "protocol": "as §1\nGroups of 9 mice were treated with bafilomycin A1 or carrier solution then fasted, anaesthetised with penotobarbitone and challenged with glucose as described for the OGTT. Blood samples for insulin assay were collected from the orbital plexus from fasted mice or from mice 15 minutes after glucose challenge using 4×75 μl haematocrit tubes for each bleed. Serum samples were diluted 1 in 5 or 1 in 20 then assayed in duplicate for insulin content using a Linco sensitive rat insulin radioimmunoassay kit. […] Insulin content was determined by sensitive rat insulin RIA using a 1 in 1,000 dilution of the homogenates."}, "Balb/c mice [3]": {"system": "Balb/c mice", "assay": "Intra-islet insulin by indirect immunofluorescence on pancreas sections", "type": "in vivo", "protocol": "FIG. 2 is a graphical representation of vacuolar ATPase inhibition causing increased islet insulin content of secretory granules in islet β cells. Infra-islet insulin was detected in paraffin embedded sections by indirect immunofluorescence using an anti-pig insulin antibody. Digitised images collected on an epifluorescent microscope were analysed for staining density using MCID image analysis software to provide a semi-quantitative measure of the amount of bound anti-insulin antibody. At least 9 islets were measured for each of 5 control mice and 6 bafilomycin A1-treated mice, and individual values for each islet from all mice in each group were combined for analysis. A measurement was made in each islet, and the background measured in exocrine tissue adjacent to the same islet was subtracted. Units are arbitrary fluorescence units and the data are expressed as the mean and standard deviation.\nThe pancreas, liver, kidney and brain were dissected from anaesthetised mice and immediately fixed in formalin. […] Endogenous peroxidase activity was inactivated using 0.5% hydrogen peroxide in methanol prior to the antibody incubations and bound HRP conjugated antibody was detected using Sigma FAST-DAB peroxidase tablets. FITC was detected using an Olympus epifluorescence microsocope and images were captured and analysed using a digital camera and MCID software. […]"}, "Balb/c mice [4]": {"system": "Balb/c mice", "assay": "Pancreatic immunoreactive insulin content by RIA on pancreas homogenates", "type": "in vivo", "details": "treated 14 days previously, 15 minutes after glucose challenge", "protocol": "Groups of 9 mice were treated with bafilomycin A1 or carrier solution then fasted, anaesthetised with penotobarbitone and challenged with glucose as described for the OGTT. Blood samples for insulin assay were collected from the orbital plexus from fasted mice or from mice 15 minutes after glucose challenge using 4×75 μl haematocrit tubes for each bleed. Serum samples were diluted 1 in 5 or 1 in 20 then assayed in duplicate for insulin content using a Linco sensitive rat insulin radioimmunoassay kit. Pancreata from the mice that were bled 15 minutes after glucose challenge were dissected and frozen on dry ice. The frozen pancreata were homogenised in 2 ml of PBS containing 1 mg/ml BSA per gram of pancreas by 10 strokes in a dounce homogeniser. The slurry was sonicated using 3×10 second bursts and then centrifuged at 12,000×g for 60 minutes. The supernatants were stored at −20° C. Insulin content was determined by sensitive rat insulin RIA using a 1 in 1,000 dilution of the homogenates.\nPancreatic immunoreactive insulin content was determined directly by RIA on homogenates of pancreas. Mice treated 14 days previously were fasted and then challenged with glucose 15 minutes prior to removal of the pancreas. […]"}, "vATPase": {"system": "vATPase", "details": "275 nM; cited from earlier work"}, "P-ATPase": {"system": "P-ATPase", "details": "275 nM; cited from earlier work"}},
  "data": [
    {"smiles": "CO/C1=C\\C(C)=C\\[C@@H](C)[C@@H](O)[C@@H](C)C/C(C)=C/C=C/[C@H](OC)[C@@H]([C@@H](C)[C@@H](O)[C@H](C)[C@@]2(O)C[C@@H](O)[C@H](C)[C@@H](C(C)C)O2)OC1=O", "note": "[bafilomycin A1]", "values": [
      {"measurement": "blood glucose after 2 hours (OGTT)", "setting": "Balb/c mice [1]; 21 days after treatment", "value": "4.2 ± 0.2", "unit": "mM"},
      {"measurement": "blood glucose after 2 hours (OGTT)", "setting": "Balb/c mice [1]; seven days after administration", "value": "4.1 ± 0.4", "unit": "mM"},
      {"measurement": "fasting glucose levels", "setting": "Balb/c mice [1]; treated mice", "value": "no change"},
      {"measurement": "peak glucose level, 15 minutes after glucose challenge", "setting": "Balb/c mice [1]; twenty one days after administration", "value": "12.5 ± 2.4", "unit": "mM"},
      {"measurement": "plasma insulin level fifteen minutes after glucose challenge", "setting": "Balb/c mice [2]", "value": "15±10"},
      {"measurement": "fasting plasma immunoreactive insulin level", "setting": "Balb/c mice [2]; fasting", "value": "1.2±0.8"},
      {"measurement": "net fluorescence emitted by islets (median)", "setting": "Balb/c mice [3]; 1 day after administration", "value": "57.9 arbitrary fluorescence units"},
      {"measurement": "net fluorescence emitted by islets (median)", "setting": "Balb/c mice [3]; 7 days after administration", "value": "59.9 arbitrary fluorescence units"},
      {"measurement": "more pancreatic immunoreactive insulin than controls", "setting": "Balb/c mice [4]", "value": 70, "unit": "%"},
      {"measurement": "pancreatic immunoreactive insulin content (median)", "setting": "Balb/c mice [4]", "value": "565 μg IRI per gram of pancreas"},
      {"measurement": "inhibition of in vitro vATPase activity", "setting": "vATPase", "value": "sufficient to inhibit"},
      {"measurement": "inhibition of P-ATPase activity", "setting": "P-ATPase", "value": "no detectable inhibition"}
    ]}
  ]
}
